Reference: ChEMBL document CHEMBL3600330, “Synthesis and biological evaluation of novel piperidine-benzodioxole derivatives designed as potential leishmanicidal drug candidates” (Bioorg Med Chem Lett, 2015)

Tests used:
Leishmania amazonensis [1] = assay: Leishmanicidal activity against promastigote form of Leishmania amazonensis assessed as inhibition of parasite growth after 72 hrs by Neubauer's chamber method; format: functional, organism-based
[2] = (§1) Cytotoxicity against human PBMC assessed as cell viability after 48 hrs by MTT reduction assay; format: cell-based; conditions: PBMC (peripheral blood mononuclear cells)
[3] = Selectivity ratio of CC50 for human PBMC to IC50 for promastigote form of Leishmania amazonensis
PBMC = assay: as §1; format: cell-based; conditions: pbmc, 48 h
Leishmania amazonensis [4] = assay: Leishmanicidal activity against promastigote form of Leishmania amazonensis […] assessed as inhibition of parasite growth after 48 hrs by Neubauer's chamber method; format: functional, organism-based

Structure (SMILES) | IC50 (Leishmania amazonensis [1]) | CC50 at 48 h [2] | Ratio CC50/IC50 [3] | CC50 (PBMC) | IC50 (Leishmania amazonensis [4])
O=C(OCC1CCN(Cc2ccc3c(c2)OCO3)CC1)c1ccc(F)cc1 | 57.4 µM | 420 µM | 7.33 |  | 
O=C(OCC1CCN(Cc2ccc3c(c2)OCO3)CC1)c1ccc(Cl)cc1 | > 103 µM |  |  | Non-toxic | 
O=C(/C=C/C=C/c1ccc2c(c1)OCO2)N1CCCCC1 [PIPERINE] |  |  |  |  | 14.5 µM
O=C(OCC1CCN(Cc2ccc3c(c2)OCO3)CC1)c1ccc2c(c1)OCO2 | 28.1 µM | 362 µM | 12.88 |  | 
O=C(OCC1CCN(Cc2ccc3c(c2)OCO3)CC1)c1ccc([N+](=O)[O-])cc1 | 17.2 µM | 356 µM | 20.64 |  | 
CCNC(=O)OCC1CCN(Cc2ccc3c(c2)OCO3)CC1 | > 125 µM | 2430 µM | <19.48 |  | 
O=C(/C=C/c1ccc2c(c1)OCO2)OCC1CCN(Cc2ccc3c(c2)OCO3)CC1 | > 94.5 µM | 950 µM | <10.06 |  | 
CCCCCCNC(=O)OCC1CCN(Cc2ccc3c(c2)OCO3)CC1 | 28.6 µM | 143 µM | 5 |  | 
COc1ccc(C(=O)OCC2CCN(Cc3ccc4c(c3)OCO4)CC2)cc1OC | 43.2 µM | 1720 µM | 39.76 |  | 
O=C(OCC1CCN(Cc2ccc3c(c2)OCO3)CC1)c1ccc(Br)cc1 | 38.3 µM | 208 µM | 5.43 |  | 
O=C(OCC1CCN(Cc2ccc3c(c2)OCO3)CC1)c1ccccc1 | 78.3 µM | 306 µM | 3.9 |  | 
